Non-standard residues stand in square brackets, D forms with d. Residues, ends and D or L forms follow the SMILES beside them.
Tests used:
Assay type in all cases: in vivo, human
[1] = tested on: malnourished subjects with CKD; assay: Phase II CKD: abnormal and clinically significant clinical chemistry and blood gas values; conditions: for Subjects with abnormal and clinically significant ALT (%) / Subjects with abnormal and clinically significant AST (%) / Subjects with abnormal and clinically significant Calcium (%) / Subjects with abnormal and clinically significant Chloride (%) / Subjects with abnormal and clinically significant Creatinine (%) / Subjects with abnormal and clinically significant GGT (%) / Subjects with abnormal and clinically significant Phosphate (%) / Subjects with abnormal and clinically significant Potassium (%) / Subjects with abnormal and clinically significant Sodium (%) / Subjects with abnormal and clinically significant Urea (%): safety analysis set
From the text: (§1) The number of subjects with abnormal and clinically significant laboratory values at baseline and at Day 28 is presented in Table 35 (haematology) and Table 36 clinical chemistry. Overall, the number of subjects with abnormal and clinically significant laboratory values was similar in the GHRH(1-29)NH2 synthetic analog and placebo groups. No clear trends were observed.

healthy male volunteers = assay: Phase I/II study in healthy male volunteers: safety and tolerability
Method: In order to evaluate the safety of the drug, all reported adverse events were considered during the study. The effects of the drug exerted specifically on the liver, renal, thyroid, cardiac and haematological functions were evaluated. The MED was defined as the dose of the GHRH(1-29)NH2 synthetic analog lower than the subsequent dose that produced the best secretion profile of GH.
It was a crossover single-blinded Phase I/II trial of escalating doses of the GHRH(1-29)NH2 synthetic analog controlled versus placebo. Ten healthy middle-aged male volunteers, between 50 and 55 years old, were recruited. All 10 subjects received a single subcutaneous dose of the GHRH(1-29)NH2 synthetic analog (reconstituted in water for injection), per day for 5 days, in a dose range from 5 to 25 μg/kg of body weight (lower than the maximal dose used to treat GH deficiency in children, which was 30 μg/kg of body weight).
After signing the informed consent form, all volunteers were clinically evaluated by the investigator and a chest x-ray and basal electrocardiogram and routine laboratory tests were performed. The analysis included: haemogram (hematocrit, haemoglobin, complete blood cell count, mean cell volume (MCV), mean corpuscular haemoglobin concentration (MCHC) and platelet count), liver function tests (aminotransferases, total proteins, albumin, alkaline phosphatase, billirubin, lactate dehydrogenase and prothrombin time), biochemistry (creatinine, urea, sodium, potassium, calcium, phosphorus, fasting glucose and postprandial glucose), urinalysis (pH, glucose, blood, proteins, and leukocytes), triiodothyronine, thyroxin and thyroid stimulating hormone (TSH), serology, basal level of IGF-1 and urine drug abuse screening.
Once the volunteers were considered eligible, they were hospitalized for a period of 5 consecutive days. On Day 0 of admission successive samples of blood were taken to perform the basal secretion profile of GH during 24 hours. During 5-day hospitalization period, after the initial blood sampling to determine fasting glucose level, the appropriate dose of the GHRH(1-29)NH2 synthetic analog or placebo was administered and multiple samplings were performed to assess the profile of GH, postprandial glucose level and electrocardiogram after 60 minutes of the application of the GHRH(1-29)NH2 synthetic analog/placebo. Eight hours after drug administration, samples were obtained to determine IGF-1 level, thyroid hormones and routine analysis. After 30 days of admission, all the volunteers returned for new clinical evaluation to record any adverse events that could have occurred from the last day of hospitalization period and to take a blood sample for later determination of anti-GHRH(1-29)NH2 synthetic analog antibodies.

[2] = tested on: malnourished subjects with CKD; assay: Phase II CKD: abnormal and clinically significant haematology values; conditions: for Subjects with abnormal and clinically significant Basophils (%) / Subjects with abnormal and clinically significant Eosinophils (%) / Subjects with abnormal and clinically significant Haematocrit (%) / Subjects with abnormal and clinically significant Haemoglobin (%) / Subjects with abnormal and clinically significant Lymphocytes (%) / Subjects with abnormal and clinically significant MCV (%) / Subjects with abnormal and clinically significant Monocytes (%) / Subjects with abnormal and clinically significant Neutrophils (%) / Subjects with abnormal and clinically significant Platelet count (%) / Subjects with abnormal and clinically significant RBC (%) / Subjects with abnormal and clinically significant WBC (%): safety analysis set
From the text: as §1

[3] = all volunteers, throughout the study

## CC[C@H](C)[C@H](NC(=O)[C@H](C)NC(=O)[C@H](CC(=O)O)NC(=O)[C@@H](C)NC(=O)[C@@H](N)Cc1ccc(O)cc1)C(=O)N[C@@H](Cc1ccccc1)C(=O)N[C@H](C(=O)N[C@@H](CC(N)=O)C(=O)N[C@@H](CO)C(=O)N[C@H](Cc1ccc(O)cc1)C(=O)N[C@@H](CCCNC(=N)N)C(=O)N[C@@H](CCCCN)C(=O)N[C@H](C(=O)N[C@@H](CC(C)C)C(=O)N[C@H](C)C(=O)N[C@@H](CCC(N)=O)C(=O)N[C@@H](CC(C)C)C(=O)N[C@@H](CO)C(=O)N[C@@H](C)C(=O)N[C@@H](CCCNC(=N)N)C(=O)N[C@@H](CCCCN)C(=O)N[C@@H](CCCCN)C(=O)N[C@@H](CC(C)C)C(=O)N[C@@H](CCC(N)=O)C(=O)N[C@@H](CC(=O)O)C(=O)N[C@H](C(=O)N[C@@H](CCSC)C(=O)N[C@@H](CO)C(=O)N[C@@H](CCCNC(=N)N)C(N)=O)[C@@H](C)CC)C(C)C)[C@@H](C)O [GHRH analog #5, [D-Ala^2, D-Tyr^10, D-Ala^15, Lys^22] hGHRH(1-29)-NH2] (H-Y[dA]DAIFTNS[dY]RKVL[dA]QLSARKKLQDIMSR-NH2)
[1]; Baseline
  Subjects with abnormal and clinically significant ALT (%): (0.0%)
  Subjects with abnormal and clinically significant AST (%): (0.0%)
  Subjects with abnormal and clinically significant Calcium (%): (0.0%)
  Subjects with abnormal and clinically significant Chloride (%): (0.0%)
  Subjects with abnormal and clinically significant Creatinine (%): (100.0%)
  Subjects with abnormal and clinically significant GGT (%): (0.0%)
  Subjects with abnormal and clinically significant Phosphate (%): (7.7%)
  Subjects with abnormal and clinically significant Potassium (%): (30.8%)
  Subjects with abnormal and clinically significant Sodium (%): (0.0%)
  Subjects with abnormal and clinically significant Urea (%): (100.0%)
[1]; Day 28
  Number of subjects with abnormal and clinically significant bicarbonate: 3 subjects
  Number of subjects with abnormal and clinically significant calcium: 3 subjects
  Subjects with abnormal and clinically significant ALT (%): (8.3%)
  Subjects with abnormal and clinically significant AST (%): (8.3%)
  Subjects with abnormal and clinically significant Calcium (%): (25.0%)
  Subjects with abnormal and clinically significant Chloride (%): (0.0%)
  Subjects with abnormal and clinically significant Creatinine (%): (100.0%)
  Subjects with abnormal and clinically significant GGT (%): (8.3%)
  Subjects with abnormal and clinically significant Phosphate (%): (16.7%)
  Subjects with abnormal and clinically significant Potassium (%): (25.0%)
  Subjects with abnormal and clinically significant Sodium (%): (0.0%)
  Subjects with abnormal and clinically significant Urea (%): (100.0%)
[1]; baseline
  Number of subjects with abnormal and clinically significant bicarbonate: 2 subjects
  Number of subjects with abnormal and clinically significant calcium: none
Healthy male volunteers; 5 to 25 μg/kg sc, healthy male volunteers
  Serious adverse events: no serious adverse events were reported
Healthy male volunteers; Day 1 to Day 5
  Aminotransferase elevation, one case: less than 2.5 times the upper normal limit
Healthy male volunteers; Day 2, after 10 μg/kg dose
  Neutrophils, neutropenia case: 1,406 neutrophyles/mm3
  White blood cells, leukopenia case: 3,800 WBC/mm3
Healthy male volunteers; Day 5, 5 μg/kg dose
  Eosinophils, eosinophilia in one volunteer: 808 eosinophyls/mm3
  White blood cells, leukocytosis in one volunteer: 12,400 WBC/mm3
Healthy male volunteers; [3]
  Mean decrease of haematocrit: 10.1±1.9 points
  Mean decrease of haemoglobin: 2.8 ± 0.8 g/dL
Healthy male volunteers; human, in vivo
  Thyroid anomalies, cardiac dysfunction: Neither thyroid anomalies nor cardiac dysfunction were reported
[2]; Baseline
  Subjects with abnormal and clinically significant Basophils (%): (0.0%)
  Subjects with abnormal and clinically significant Eosinophils (%): (0.0%)
  Subjects with abnormal and clinically significant Haematocrit (%): (7.7%)
  Subjects with abnormal and clinically significant Haemoglobin (%): (23.1%)
  Subjects with abnormal and clinically significant Lymphocytes (%): (0.0%)
  Subjects with abnormal and clinically significant MCV (%): (0.0%)
  Subjects with abnormal and clinically significant Monocytes (%): (7.7%)
  Subjects with abnormal and clinically significant Neutrophils (%): (7.7%)
  Subjects with abnormal and clinically significant Platelet count (%): (0.0%)
  Subjects with abnormal and clinically significant RBC (%): (7.7%)
  Subjects with abnormal and clinically significant WBC (%): (0.0%)
[2]; Day 28
  Number of subjects with abnormal and clinically significant haematocrit: 4 subjects
  Subjects with abnormal and clinically significant Basophils (%): (0.0%)
  Subjects with abnormal and clinically significant Eosinophils (%): (0.0%)
  Subjects with abnormal and clinically significant Haematocrit (%): (33.3%)
  Subjects with abnormal and clinically significant Haemoglobin (%): (41.7%)
  Subjects with abnormal and clinically significant Lymphocytes (%): (0.0%)
  Subjects with abnormal and clinically significant MCV (%): (0.0%)
  Subjects with abnormal and clinically significant Monocytes (%): (8.3%)
  Subjects with abnormal and clinically significant Neutrophils (%): (16.7%)
  Subjects with abnormal and clinically significant Platelet count (%): (0.0%)
  Subjects with abnormal and clinically significant RBC (%): (25.0%)
  Subjects with abnormal and clinically significant WBC (%): (0.0%)
[2]; baseline
  Number of subjects with abnormal and clinically significant haematocrit: 1 subject

— patent US20090088380A1, “GHRH ANALOGS AND THERAPEUTIC USES THEREOF” (priority 2007, published 2009)
